We go through eight molecules from patent US11890382B2, “Edible plant-derived microvesicle compositions for diagnosis and treatment of disease” (University of Louisville Research Foundation, Inc., priority 2011, dated 2024).

Series [1] has as its system A549 cells. The series can be described thus: Uptake of labeled EPNVs by A549 cells. The following applies: 37° C.; sodium azide 50 mM, 3 and 6 hour. It counts as cell-based, human. The method, then:
For uptake experiments, tumor cells were grown in 12-well plates with Eagle's minimal essential medium (EMEM) in the presence of 10% fetal bovine serum (FBS) for 24 h. […] After washing with cold PBS 5×, cells were trypsinized with 0.25% Trypsin-EDTA (Invitrogen, Carlsbad, CA) and washed an additional two time. Finally, the cells were resuspended in flow cytometry buffer and analyzed by flow cytometry (BD Accuri™ C6 Cytometer, New Jersey USA) and FlowJo Version 7.6 software (TreeStar Inc). The data presented were based on the mean fluorescence signal for 50,000 cells collected. All assays were performed in triplicate. […]
The cultured cells were then washed with PBS 3×. The percentages of PKH26^+ cells were quantified by FACS analysis (BD Accuri™ Flow Cytometer) and FlowJo Version 7.6 software (TreeStar Inc.).
After washing 3×, PKH26+ cells was analyzed using FACS.
After washing 3× with PBS (pH7.4), PKH26^+ cells were determined by FACS analysis as previously described. Cells exposed to the vehicle (PBS; pH 7.4), served as a control for intrinsic fluorescence, both in the presence and the absence of 50 mM sodium azide. The data were analyzed by FACS (BD Accuri™ Flow Cytometer) and FlowJo Version 7.6 software (TreeStar Inc). […]

The test system of series [2] is CT26, SW620 and 4T1 tumors. The series can be described thus: EPNV mediated targeting and therapy, statements for all three tumor models. The following applies: mouse. On the procedure:
In the first set experiments, six-week-old female BALB/c-SCID mice (Jackson Lab) were injected subcutaneously with the human colon cancer SW620 cell line (5.0×10^6 cells/mouse in 50 μl of PBS). In the second set of experiments, six-week-old female BALB/c mice (Jackson Lab) were injected subcutaneously with murine colon cancer CT26 cell line (1.0×10^6 cells/mouse in 50 μl of PBS). In the third set of experiments, six-week-old female BALB/c mice (Jackson Lab) were injected at a mammary fat pad with the murine breast tumor 4T1cell line (1.0×10^6 cells/mouse in 50 μl of PBS). […] Growth of the tumors was measured.

Series [3] concerns colitis-associated cancer (CAC). The experiment in a line: AOM/DSS colitis-associated colon cancer model. The conditions noted are these: gavaged at 4 mg/kg every other day for 3 weeks. Format: in vivo, mice. The method, then: Colitis-associated colorectal cancer (CAC) was induced as described below. Six to seven week old female mice were injected intraperitoneally (IP) with 12.5 mg/kg azoxymethane (AOM; Sigma-Aldrich Chemical Co, St. Louis, MO). Beginning on the same day, mice were provided […] dextran sulfate sodium (DSS; MP Biomedicals, Solon, OH, molecular weight 35,000-50,000 […]) water for 7 days followed by 14 days of untreated drinking water. Mice were subjected to two more DSS water—untreated drinking water cycles followed by untreated water for 28 days. […] At the termination of the study, mice were sacrificed by CO2 asphyxiation and all organs were carefully inspected for macroscopic pathological lesions. The intestines, liver, and spleen were removed, and fixed in 10% buffered formalin for a minimum of 24 h. The colon was excised, flushed with saline, the length measured, cut open longitudinally, flattened on filter paper and washed with saline. Macroscopic inspection of the colons was carefully carried out, with the number, size and location of visible tumors recorded.
Mice received a single injection of azoxymethane (AOM, 10 mg/kg body weight), followed by administration of three cycles of dextran sulfate sodium (DSS, 2% in water) as outlined in FIG. 4.

Series [4] in a line: Liver enzymes (ALT, GST) after oral treatment. It counts as in vivo, mice. The conditions noted are these: last day of treatment. An excerpt: At least ten mice were included per group.
Arthritis was induced using a standard protocol.

Series [5] relates to LPS induced septic shock. The series can be described thus: LPS mouse septic shock model. Format: in vivo, C57BL/6 mice. The conditions noted are these: amount equal to that in GELP-Cur; PBS 9/10. The text has this: PBS and GELPs alone (equal to the amount in GELPs-Cur) were used as controls. Mouse mortality was monitored over a period of 4 days.
Using an identical treatment protocol as described above, GELP-Cur-treatment led to 100% protection of C57BL/6 mice (10 mice/group) against LPS induced sepsis in a murine model.

On to `CN(C)CCCN1c2ccccc2Sc2ccc(Cl)cc21` [chlorpromazine], for which the “effect of inhibitor on uptake of PKH26-EPNV by A549 cells” value (shortened to “effect of inhibitor”) in series [1] is on record as “greatly diminished”.

With `COc1ccc2c(c1)c(CC(=O)O)c(C)n2C(=O)c1ccc(Cl)cc1` [indomethacin], in series [1], the “effect of inhibitor” value is listed as “did not affect”. Same read-out and setting: as for `CO/C1=C\C(C)=C\[C@@H](C)[C@@H](O)[C@@H](C)C/C(C)=C/C=C/[C@H](OC)[C@@H]([C@@H](C)[C@@H](O)[C@H](C)[C@@]2(O)C[C@@H](O)[C@H](C)[C@@H](C(C)C)O2)OC1=O` [bafilomycin A1], the entry is “markedly inhibited”; as for `C=C1[C@@H](C)[C@H]2[C@H](Cc3ccccc3)NC(=O)[C@]23[C@H](OC(C)=O)/C=C/[C@@](C)(O)C(=O)[C@@H](C)C/C=C/[C@H]3[C@@H]1O` [cytochalasin D], “greatly diminished”. For `COC(=O)Nc1nc2ccc(C(=O)c3cccs3)cc2[nH]1` [nocodazole], in series [1], the “effect of inhibitor” value is recorded as “greatly diminished”. Still for that read-out and setting: as for `N=C(N)NC(=O)c1nc(Cl)c(N)nc1N` [Amiloride], the entry is “did not affect”. With `CC(=O)O[C@H]1C(=O)[C@@]2(C)[C@H]([C@H](OC(=O)c3ccccc3)[C@]3(O)C[C@H](OC(=O)[C@H](O)[C@@H](NC(=O)c4ccccc4)c4ccccc4)C(C)=C1C3(C)C)[C@]1(OC(C)=O)CO[C@@H]1C[C@@H]2O` [PTX, paclitaxel], the “in vivo biodistribution in sacrificed tumor bearing mice” value in series [2] is “mainly targeted liver and spleen”. As for `COc1cc(/C=C/C(=O)CC(=O)/C=C/c2ccc(O)c(OC)c2)ccc1O` [free curcumin, curcumin], the “average tumor number per mouse” value in series [3] was 8.5. For the same molecule, the “liver enzyme ALT versus PBS group” value in series [4] (ALT (36±8.1 U/I)) is reported as “not significantly different”. Besides, the “liver enzyme GST versus PBS group” value in series [4] (GST (25±5.2)) was “not significantly different”. Besides, the mice died in series [5] is 8/10.
